In ChEMBL document CHEMBL3727350, “Agents and methods for treating ischemic and other diseases” (2014):
Calls of active or inactive are those of the source. The calls are words filed in the database; no cut-off is given here.

Legend:
B16-F1 = test: Inhibition of cell proliferation of mouse B16-F1 cells at 1.25 to 10 uM incubated for 72 hrs by SRB assay; assay type: functional, cell-based
[1] = Inhibition of cell proliferation of human WERI cells at 10 uM incubated for 48 to 96 hrs; assay type: functional
B16-F10 = test: Inhibition of cell proliferation of mouse B16F10 cells at 1.25 to 10 uM incubated for 72 hrs by SRB assay; assay type: functional, cell-based
[2] = biological target: Transient receptor potential cation channel subfamily M member 7 (Mus musculus) (UniProt Q923J1); test: Inhibition of TRPM7 in mouse primary neuronal cells exposed to oxygen glucose deprivation condition for 1 to 3 hrs assessed as reduction in TRPM7-mediated anoxic cell death dosed after oxygen glucose deprivation condition by propidium iodide uptake assay; conditions: Primary neuron
[3] = biological target: Transient receptor potential cation channel subfamily M member 7 (Mus musculus) (UniProt Q923J1); test: Inhibition of TRPM7 in mouse mouse primary cortical neurons exposed to 2 hrs oxygen glucose deprivation condition assessed as reduction in TRPM7-mediated anoxic cell death measured after 20 hrs by propidium iodide uptake assay; assay type: cell-based; conditions: Cerebral cortex neuron
[4] = Inhibition of cell proliferation of mouse NIH/3T3 cells at 1.25 to 10 uM incubated for 72 hrs by propidium iodide staining assay; assay type: cell-based; conditions: nih3t3, 72 h
H9c2 [5] = test: Toxicity against rat H9c2 cells at 10 uM; assay type: cell-based; conditions: h9c2, 10 µM
HeLa = test: Inhibition of cell proliferation of human HeLa cells at 1.25 to 10 uM incubated for 48 hrs by BrdU incorporation assay; assay type: functional, cell-based
SW13 [6] = test: Inhibition of cell proliferation of human SW13 cells at 1.25 to 10 uM incubated for 72 hrs by SRB assay; assay type: functional, cell-based
[7] = biological target: Transient receptor potential cation channel subfamily M member 7 (Mus musculus) (UniProt Q923J1); test: Inhibition of Tet-induced Flag-tagged mouse TRPM7 expressed in HEK293 cells assessed as inhibition of channel-mediated cell death in presence of Mg2+ incubated for 24 to 48 hrs by propidium iodide uptake assay; assay type: cell-based; design: concentration or dose not given beside the values
H9c2 [8] = test: Toxicity against rat H9c2 cells at 5 uM; assay type: cell-based; conditions: h9c2, 5 µM
SW13 [9] = test: Inhibition of cell proliferation of human SW13 cells at 1.25 to 10 uM incubated for 48 hrs by BrdU incorporation assay; assay type: functional, cell-based
[10] = biological target: Transient receptor potential cation channel subfamily M member 7 (Rattus norvegicus) (UniProt Q925B3); test: Inhibition of TRPM7 in rat H9C2 cells assessed as reduction in channel currents at 0.3 to 30 uM by whole cell patch clamp assay; assay type: cell-based
[11] = biological target: Transient receptor potential cation channel subfamily M member 7 (Mus musculus) (UniProt Q923J1); test: Inhibition of Tet-induced Flag-tagged mouse TRPM7 expressed in HEK293 cells assessed as reduction in channel currents at 0.3 to 30 uM by whole cell patch clamp assay; assay type: cell-based
[12] = biological target: Transient receptor potential cation channel subfamily M member 7 (Mus musculus) (UniProt Q923J1); test: Inhibition of TRPM7 in mouse primary neuronal cells exposed to oxygen glucose deprivation condition for 1 to 3 hrs assessed as reduction in TRPM7-mediated anoxic cell death dosed before oxygen glucose deprivation condition by propidium iodide uptake assay; conditions: Primary neuron
MDA-MB-231 = test: Inhibition of cell proliferation of human MDA-MB-231 cells at 1.25 to 10 uM incubated for 72 hrs by SRB assay; assay type: functional, cell-based
[13] = biological target: Transient receptor potential cation channel subfamily V member 1 (Homo sapiens) (UniProt Q8NER1); test: Inhibition of TRPV1 (unknown origin) expressed in HEK293 cells assessed as effect on agonist-induced Ca2+ changes; assay type: functional, cell-based
[14] = biological target: Transient receptor potential cation channel subfamily M member 2 (Homo sapiens) (UniProt O94759); test: Inhibition of TRPM2 (unknown origin) expressed in HEK293 cells assessed as effect on agonist-induced Ca2+ changes; assay type: functional, cell-based
Mus musculus [15] = species on record: Mus musculus; test: Inhibition of calcium channel in mouse cortical neurons assessed as effect on Ca2+ currents; assay type: functional
Mus musculus [16] = test: Reduction in dead cells following LAD restriction of heart in mouse model of permanent LAD coronary artery ligation at 10 to 100 ug/kg, iv administered as single dose within 15 mins of LAD occlusion by TUNEL assay; assay type: functional, organism-based
[17] = biological target: Transient receptor potential cation channel subfamily M member 7 (Rattus norvegicus) (UniProt Q925B3); test: Inhibition of TRPM7 in Sprague-Dawley rat retinal explants dissociated and subjected to 1 hr oxygen-glucose deprivation assessed as reduction in retinal cell death at 1 and 5 uM
Rattus norvegicus [18] = test: Analgesic activity in iv dosed rat model of formalin-induced inflammatory pain assessed reduction in formalin-induced phase-2 pain flinches; assay type: functional, organism-based
[19] = biological target: Transient receptor potential cation channel subfamily A member 1 (Homo sapiens) (UniProt O75762); test: Inhibition of TRPA1 ((unknown origin) expressed in HEK293 cells assessed as effect on agonist-induced Ca2+ changes; assay type: functional, cell-based
[20] = biological target: Transient receptor potential cation channel subfamily M member 7 (Rattus norvegicus) (UniProt Q925B3); test: Inhibition of TRPM7 in rat H9c2 cells assessed as protection against oxygen glucose deprivation-induced cell death at 0.05 to 5 uM; assay type: cell-based
Rattus norvegicus [21] = test: Analgesic activity in iv dosed rat model of formalin-induced inflammatory pain assessed reduction in formalin-induced phase-1 pain flinches; assay type: functional, organism-based
Rattus norvegicus [22] = species on record: Rattus norvegicus; test: Reduction in retinal cell death in rat model of acute glaucoma assessed as reduction in TUNEL positive cells after exposure to 1 hr high IOP at 1 uM; assay type: functional, organism-based
[23] = biological target: Transient receptor potential cation channel subfamily M member 6 (Homo sapiens) (UniProt Q9BX84); test: Inhibition of TRPM6 (unknown origin) expressed in HEK293 cells assessed as effect on agonist-induced Ca2+ changes; assay type: functional, cell-based
[24] = biological target: Transient receptor potential cation channel subfamily M member 7 (Rattus norvegicus) (UniProt Q925B3); test: Inhibition of TRPM7 in rat H9c2 cells assessed as protection against oxygen glucose deprivation-induced cell death at 0.05 to 5 uM applied during OGD; assay type: cell-based
[25] = biological target: Transient receptor potential cation channel subfamily M member 7 (Rattus norvegicus) (UniProt Q925B3); test: Inhibition of TRPM7 in rat H9C2 cells exposed to oxygen glucose deprivation condition for 1 to 6 hrs assessed as reduction in TRPM7-mediated anoxic cell death in presence of 1 uM nifedipine by propidium iodide uptake assay; assay type: cell-based
[26] = biological target: Transient receptor potential cation channel subfamily M member 7 (Mus musculus) (UniProt Q923J1); test: Inhibition of TRPM7 in mouse AML12 cells assessed as protection against oxygen glucose deprivation-induced cell death at 0.5 to 5 uM; assay type: cell-based
[27] = biological target: Transient receptor potential cation channel subfamily M member 7 (Rattus norvegicus) (UniProt Q925B3); test: Inhibition of TRPM7 in rat H9c2 cells assessed as protection against oxygen glucose deprivation-induced cell death at 0.05 to 5 uM pre-treated for 24 hrs before OGD in presence of 1 uM nifedipine; assay type: cell-based
Mus musculus [28] = test: Reduction in infarct volume in mouse model of permanent LAD coronary artery ligation at 10 to 335 ug/kg, iv administered as single dose within 15 mins of LAD occlusion by TTC staining based method; assay type: functional, organism-based
[29] = biological target: Transient receptor potential cation channel subfamily M member 7 (Rattus norvegicus) (UniProt Q925B3); test: Inhibition of TRPM7 in rat H9c2 cells assessed as protection against oxygen glucose deprivation-induced cell death at 0.05 to 5 uM in presence of 1 uM nifedipine; assay type: cell-based
Mus musculus [30] = species on record: Mus musculus; test: Inhibition of sodium channel in mouse cortical neurons assessed as effect on Na+ currents
[31] = biological target: Glutamate NMDA receptor (Mus musculus) (UniProt P35436+Q91ZU9+Q03391+P35438+Q01097+Q01098+A2AIR5); test: Inhibition of NMDA receptor in mouse cortical neurons assessed as effect on NMDA currents; assay type: protein-complex assay
Mus musculus [32] = test: Toxicity in mouse up to 150 uM, iv; assay type: organism-based; conditions: in vivo
[33] = biological target: Transient receptor potential cation channel subfamily M member 4 (Homo sapiens) (UniProt Q8TD43); test: Inhibition of TRPM4 (unknown origin) expressed in HEK293 cells assessed as effect on agonist-induced Ca2+ changes; assay type: functional, cell-based
[34] = biological target: Transient receptor potential cation channel subfamily M member 7 (Rattus norvegicus) (UniProt Q925B3); test: Inhibition of TRPM7 in rat retinal explants exposed to oxygen glucose deprivation condition for 1 hr assessed as protection against TRPM7-mediated cell death at by propidium iodide uptake assay
Mus musculus [35] = species on record: Mus musculus; test: Inhibition of potassium channel in mouse cortical neurons assessed as reduction in potassium currents at -10mV membrane potential
Mus musculus [36] = test: Reduction in damage to heart in mouse model of myocardial infarction at 10 to 35 ug/kg; assay type: functional, organism-based
[37] = biological target: Transient receptor potential cation channel subfamily M member 7 (Rattus norvegicus) (UniProt Q925B3); test: Inhibition of TRPM7 in Sprague-Dawley rat retinal explants subjected to 1 hr oxygen-glucose deprivation assessed as reduction in retinal ischemia at 5 uM
[38] = biological target: Glutamate receptor ionotropic, AMPA (Mus musculus) (UniProt P23819+P23818+Q9Z2W8+Q9Z2W9); test: Inhibition of AMPA receptor in mouse cortical neurons assessed as effect on AMPA currents; assay type: protein-complex assay
[39] = biological target: Protein XNDC1N (Homo sapiens) (UniProt Q6ZNB5); test: Inhibition of TRPC2 (unknown origin) expressed in HEK293 cells assessed as effect on agonist-induced Ca2+ changes; assay type: functional, cell-based
[40] = biological target: Transient receptor potential cation channel subfamily M member 7 (Mus musculus) (UniProt Q923J1); test: Inhibition of Tet-induced Flag-tagged mouse TRPM7 expressed in HEK293 cells assessed as reduction in channel currents at 2 mM using compound applied extracellularly by whole cell patch clamp assay; assay type: cell-based
[41] = biological target: Transient receptor potential cation channel subfamily M member 7 (Rattus norvegicus) (UniProt Q925B3); test: Inhibition of TRPM7 in rat H9C2 cells exposed to 6 hrs oxygen glucose deprivation condition followed by 2 hrs recovery assessed as reduction in TRPM7-mediated anoxic cell death at 0.05 to 5 uM by propidium iodide uptake assay; assay type: cell-based
[42] = biological target: Transient receptor potential cation channel subfamily M member 7 (Rattus norvegicus) (UniProt Q925B3); test: Inhibition of TRPM7 in rat H9c2 cells assessed as protection against oxygen glucose deprivation-induced cell death at 0.05 to 5 uM pre-treated for 24 hrs before OGD; assay type: cell-based
[43] = biological target: Transient receptor potential cation channel subfamily M member 7 (Mus musculus) (UniProt Q923J1); test: Inhibition of Tet-induced Flag-tagged mouse TRPM7 expressed in HEK293 cells assessed as reduction in channel currents at 2 mM using compound applied intracellularly by whole cell patch clamp assay; assay type: cell-based
[44] = biological target: Transient receptor potential cation channel subfamily M member 7 (Mus musculus) (UniProt Q923J1); test: Inhibition of TRPM7 in mouse mouse primary cortical neurons exposed to 1 hrs oxygen glucose deprivation condition assessed as reduction in TRPM7-mediated anoxic cell death at 1.25 to 10 uM measured after 20 hrs by propidium iodide uptake assay; assay type: cell-based; conditions: Cerebral cortex neuron
[45] = biological target: Transient receptor potential cation channel subfamily M member 7 (Rattus norvegicus) (UniProt Q925B3); test: Inhibition of TRPM7 in cultured rat retinal ganglion cells exposed to oxygen glucose deprivation condition for 3 hrs assessed as protection against TRPM7-mediated cell death at by propidium iodide uptake assay; design: scale not given: the % may be the effect or the level left

Chain of Transient receptor potential cation channel subfamily M member 7 (Rattus norvegicus) (Q925B3 whole entry): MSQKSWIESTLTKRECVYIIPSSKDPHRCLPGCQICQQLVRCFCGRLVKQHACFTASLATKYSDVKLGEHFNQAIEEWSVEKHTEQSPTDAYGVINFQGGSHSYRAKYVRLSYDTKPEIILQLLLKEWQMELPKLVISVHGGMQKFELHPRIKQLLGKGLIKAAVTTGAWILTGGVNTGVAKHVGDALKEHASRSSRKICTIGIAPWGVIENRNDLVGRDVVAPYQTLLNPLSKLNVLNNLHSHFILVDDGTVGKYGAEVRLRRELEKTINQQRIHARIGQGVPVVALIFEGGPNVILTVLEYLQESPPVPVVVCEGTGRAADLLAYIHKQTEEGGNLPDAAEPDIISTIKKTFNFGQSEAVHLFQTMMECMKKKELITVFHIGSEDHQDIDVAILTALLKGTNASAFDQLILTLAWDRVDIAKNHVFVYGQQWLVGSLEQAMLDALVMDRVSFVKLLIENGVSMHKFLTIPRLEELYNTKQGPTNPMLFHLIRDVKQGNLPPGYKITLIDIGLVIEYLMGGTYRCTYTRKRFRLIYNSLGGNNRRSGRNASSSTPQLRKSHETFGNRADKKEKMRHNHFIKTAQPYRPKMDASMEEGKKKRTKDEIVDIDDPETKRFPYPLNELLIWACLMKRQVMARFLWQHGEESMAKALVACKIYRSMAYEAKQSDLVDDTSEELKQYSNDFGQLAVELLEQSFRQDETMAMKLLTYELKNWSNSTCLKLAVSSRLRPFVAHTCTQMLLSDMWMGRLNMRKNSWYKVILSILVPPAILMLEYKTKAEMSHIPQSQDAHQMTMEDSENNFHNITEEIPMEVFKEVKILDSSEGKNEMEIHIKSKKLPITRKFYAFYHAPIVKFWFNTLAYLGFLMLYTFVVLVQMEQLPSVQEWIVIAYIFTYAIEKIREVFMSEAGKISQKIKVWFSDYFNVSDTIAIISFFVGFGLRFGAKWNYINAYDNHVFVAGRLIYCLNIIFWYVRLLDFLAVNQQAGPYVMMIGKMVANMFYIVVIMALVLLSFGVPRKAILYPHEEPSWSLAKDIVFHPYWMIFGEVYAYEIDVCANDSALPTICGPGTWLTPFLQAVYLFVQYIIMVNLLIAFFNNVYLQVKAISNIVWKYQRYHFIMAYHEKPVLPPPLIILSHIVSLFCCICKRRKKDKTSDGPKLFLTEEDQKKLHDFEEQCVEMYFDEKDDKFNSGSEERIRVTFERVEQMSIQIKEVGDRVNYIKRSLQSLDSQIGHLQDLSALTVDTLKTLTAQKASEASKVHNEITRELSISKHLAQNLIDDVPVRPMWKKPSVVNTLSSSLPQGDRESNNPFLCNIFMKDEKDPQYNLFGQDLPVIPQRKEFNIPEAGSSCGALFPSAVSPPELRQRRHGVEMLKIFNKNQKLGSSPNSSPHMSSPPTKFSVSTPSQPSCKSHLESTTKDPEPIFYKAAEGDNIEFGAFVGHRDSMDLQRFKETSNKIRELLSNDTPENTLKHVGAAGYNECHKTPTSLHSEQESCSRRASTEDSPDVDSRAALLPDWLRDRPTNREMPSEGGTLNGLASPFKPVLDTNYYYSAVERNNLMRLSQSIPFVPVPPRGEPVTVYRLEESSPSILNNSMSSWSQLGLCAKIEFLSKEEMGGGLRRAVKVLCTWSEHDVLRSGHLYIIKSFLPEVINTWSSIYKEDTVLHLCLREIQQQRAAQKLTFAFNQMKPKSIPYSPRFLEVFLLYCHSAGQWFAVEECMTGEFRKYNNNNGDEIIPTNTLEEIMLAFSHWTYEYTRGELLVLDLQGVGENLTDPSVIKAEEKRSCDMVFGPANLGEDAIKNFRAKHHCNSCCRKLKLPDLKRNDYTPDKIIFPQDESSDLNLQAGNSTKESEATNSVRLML
Chain of Transient receptor potential cation channel subfamily M member 7 (Mus musculus) (Q923J1 whole entry): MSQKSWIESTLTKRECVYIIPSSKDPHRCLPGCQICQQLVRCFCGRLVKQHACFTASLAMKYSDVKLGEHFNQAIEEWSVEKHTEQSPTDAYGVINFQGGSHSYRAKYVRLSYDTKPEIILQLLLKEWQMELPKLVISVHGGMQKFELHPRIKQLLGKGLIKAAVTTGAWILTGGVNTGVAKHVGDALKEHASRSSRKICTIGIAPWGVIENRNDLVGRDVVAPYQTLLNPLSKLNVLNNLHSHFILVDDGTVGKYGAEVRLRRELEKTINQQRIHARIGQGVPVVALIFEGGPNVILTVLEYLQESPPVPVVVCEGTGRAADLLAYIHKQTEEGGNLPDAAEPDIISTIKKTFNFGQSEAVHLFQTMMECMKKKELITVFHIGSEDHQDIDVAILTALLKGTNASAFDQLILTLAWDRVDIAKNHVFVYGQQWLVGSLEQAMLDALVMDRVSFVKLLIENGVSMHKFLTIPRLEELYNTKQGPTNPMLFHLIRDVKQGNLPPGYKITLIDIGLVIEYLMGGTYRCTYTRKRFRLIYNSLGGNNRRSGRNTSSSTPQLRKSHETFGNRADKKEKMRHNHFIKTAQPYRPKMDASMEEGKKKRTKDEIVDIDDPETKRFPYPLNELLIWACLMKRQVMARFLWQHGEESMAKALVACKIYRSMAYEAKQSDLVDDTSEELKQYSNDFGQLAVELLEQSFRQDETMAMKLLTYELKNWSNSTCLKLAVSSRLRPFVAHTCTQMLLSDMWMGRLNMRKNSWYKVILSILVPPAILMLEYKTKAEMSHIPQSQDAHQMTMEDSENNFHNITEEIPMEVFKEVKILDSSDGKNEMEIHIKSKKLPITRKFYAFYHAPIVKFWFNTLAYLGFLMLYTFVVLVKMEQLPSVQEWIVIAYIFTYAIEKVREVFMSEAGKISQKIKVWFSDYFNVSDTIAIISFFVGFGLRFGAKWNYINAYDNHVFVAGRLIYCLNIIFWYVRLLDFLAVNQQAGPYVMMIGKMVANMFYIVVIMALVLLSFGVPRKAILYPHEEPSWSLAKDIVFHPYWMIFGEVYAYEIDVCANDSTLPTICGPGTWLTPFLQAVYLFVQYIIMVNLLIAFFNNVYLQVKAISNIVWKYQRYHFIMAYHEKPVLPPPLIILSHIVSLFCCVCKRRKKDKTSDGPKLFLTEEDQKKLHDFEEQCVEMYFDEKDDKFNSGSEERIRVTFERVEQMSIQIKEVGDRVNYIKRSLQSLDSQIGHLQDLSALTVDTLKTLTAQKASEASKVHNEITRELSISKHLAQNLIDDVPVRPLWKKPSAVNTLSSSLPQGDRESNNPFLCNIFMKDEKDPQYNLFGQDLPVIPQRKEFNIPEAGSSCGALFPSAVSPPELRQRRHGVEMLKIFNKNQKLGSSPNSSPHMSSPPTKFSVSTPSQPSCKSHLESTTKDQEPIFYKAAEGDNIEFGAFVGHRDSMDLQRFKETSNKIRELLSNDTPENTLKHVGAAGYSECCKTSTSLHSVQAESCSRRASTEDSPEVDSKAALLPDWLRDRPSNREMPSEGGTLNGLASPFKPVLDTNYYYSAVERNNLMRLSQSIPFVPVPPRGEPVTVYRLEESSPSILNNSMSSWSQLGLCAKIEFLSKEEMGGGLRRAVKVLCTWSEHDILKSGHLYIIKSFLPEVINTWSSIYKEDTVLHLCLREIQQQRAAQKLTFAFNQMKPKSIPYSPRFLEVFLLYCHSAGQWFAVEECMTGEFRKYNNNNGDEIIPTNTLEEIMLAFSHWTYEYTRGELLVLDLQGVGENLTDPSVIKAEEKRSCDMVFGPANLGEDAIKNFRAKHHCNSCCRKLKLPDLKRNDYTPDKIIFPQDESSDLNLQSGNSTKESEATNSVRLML
Chain of Transient receptor potential cation channel subfamily V member 1 (Homo sapiens) (Q8NER1 whole entry): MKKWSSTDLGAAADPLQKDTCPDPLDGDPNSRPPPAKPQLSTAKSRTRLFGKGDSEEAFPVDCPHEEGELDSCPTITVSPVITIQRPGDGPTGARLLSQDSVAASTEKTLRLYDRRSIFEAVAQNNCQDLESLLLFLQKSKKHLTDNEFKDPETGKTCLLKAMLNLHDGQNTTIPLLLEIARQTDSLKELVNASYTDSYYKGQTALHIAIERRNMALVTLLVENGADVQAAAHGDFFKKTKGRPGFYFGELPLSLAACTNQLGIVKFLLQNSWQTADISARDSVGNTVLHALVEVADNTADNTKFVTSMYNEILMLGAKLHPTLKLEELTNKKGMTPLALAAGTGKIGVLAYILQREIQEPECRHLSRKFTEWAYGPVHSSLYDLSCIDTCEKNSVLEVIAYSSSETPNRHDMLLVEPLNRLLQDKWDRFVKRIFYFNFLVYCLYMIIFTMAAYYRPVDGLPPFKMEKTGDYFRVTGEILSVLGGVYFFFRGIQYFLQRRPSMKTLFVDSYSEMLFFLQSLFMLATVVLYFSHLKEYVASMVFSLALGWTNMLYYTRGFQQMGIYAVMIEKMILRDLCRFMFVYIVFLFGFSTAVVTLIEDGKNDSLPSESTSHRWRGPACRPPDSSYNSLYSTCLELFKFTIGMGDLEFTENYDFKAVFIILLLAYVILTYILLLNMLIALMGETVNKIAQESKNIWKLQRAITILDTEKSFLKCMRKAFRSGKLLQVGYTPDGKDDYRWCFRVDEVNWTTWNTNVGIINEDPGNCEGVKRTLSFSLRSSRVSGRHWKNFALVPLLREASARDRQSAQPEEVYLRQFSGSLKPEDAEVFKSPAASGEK
Chain of Protein XNDC1N (Homo sapiens) (Q6ZNB5 whole entry): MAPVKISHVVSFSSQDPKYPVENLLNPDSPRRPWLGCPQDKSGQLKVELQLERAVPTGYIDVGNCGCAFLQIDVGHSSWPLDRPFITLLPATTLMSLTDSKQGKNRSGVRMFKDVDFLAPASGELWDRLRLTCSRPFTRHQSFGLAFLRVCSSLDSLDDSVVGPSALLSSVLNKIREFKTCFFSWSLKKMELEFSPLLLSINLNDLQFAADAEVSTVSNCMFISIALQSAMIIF

In the case of Cc1ccc(-n2c(-c3ccc(Cl)c(C)c3)csc2=N)c(C)c1.Cl, the inhibition (B16-F1) is reported as “Active”, the inhibition at 10 µM [1] is reported as > 20% and the inhibition (B16-F10) is reported as “Active”. The inhibition [2] was “Active”, the inhibition [3] was “Active” and the Activity [4] was “Non-toxic”. The Activity (H9c2 [5]) was “Toxic”, the inhibition (HeLa) was “Active” and the inhibition (SW13 [6]) was “Active”. For the same compound, the inhibition ([7]; concentration not given here) was 80%, the Activity (H9c2 [8]) was “Non-toxic” and the inhibition (SW13 [9]) was “Active”. For the same compound, the inhibition [10] was “Active”, the inhibition [11] was “Active” and the inhibition [12] was “Active”. The inhibition (MDA-MB-231) was “Active”.

In the case of Cc1c(Cc2ccc(Cl)c(Cl)c2)c(=O)oc2cc(O)ccc12, the inhibition [13] is reported as “inactive”, the inhibition [14] is reported as “inactive” and the inhibition (Mus musculus [15]) is reported as “inactive”. The Activity (Mus musculus [16]) was “Active”, the inhibition at 10 µM [1] was > 20% and the inhibition [17] was “Active”. For the same compound, the Activity (Rattus norvegicus [18]) was “Active”, the inhibition [2] was “Active” and the inhibition [19] was “inactive”. For the same compound, the inhibition [20] was “Active”, the Activity (Rattus norvegicus [21]) was “inactive” and the Activity (Rattus norvegicus [22]) was “Active”. For the same compound, the inhibition [23] was “inactive”, the inhibition [3] was “Active” and the inhibition [24] was “Active”. For the same compound, the inhibition [25] was “Active”, the inhibition [26] was “Active” and the inhibition [7] was “Active”. For the same compound, the inhibition [27] was “Active”, the Activity (Mus musculus [28]) was “Active” and the inhibition [29] was “Active”. The inhibition (Mus musculus [30]) was “inactive”, the inhibition [31] was “inactive” and the Activity (Mus musculus [32]) was “Non-toxic”. The inhibition [33] was “inactive”, the inhibition [34] was “Active” and the inhibition (Mus musculus [35]) was 20%. For the same compound, the Activity (Mus musculus [36]) was “Active”, the inhibition [37] was “Active” and the inhibition [38] was “inactive”. For the same compound, the inhibition [39] was “inactive”, the inhibition [10] was “Active” and the inhibition [40] was “Active”. For the same compound, the inhibition [41] was “Active”, the inhibition [11] was “Active” and the inhibition [12] was “Active”. For the same compound, the inhibition [42] was “Active”, the inhibition [43] was “inactive” and the inhibition [44] was “Active”. It also gave an Activity [45] of 66%.
